In patent US10117916B2, “Peptides and combination of peptides for use in immunotherapy against CLL and other cancers” (immatics biotechnologies GmbH, priority 2015, dated 2018):

Columns and labels:
HLA-A*02:01 = HLA-A*02:01 (Homo sapiens, UniProt P04439, D140Y/D185E/D98H/E176V/E277Q/G131W/G231S/I119V/I121R/I166T/I218V/L300P/L318F/N151K/N90K/P208A/P217A/Q86G/Q94H/R138H/R169H/T345S); test: MHC binding assay: UV-ligand exchange with β2m ELISA (peptide exchange yield); conditions: MHC class I binding score; binding to HLA-A*02:01 ranged by peptide exchange yield (UV-ligand exchange, β2m ELISA)
Outline: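 Peptide–MHC complexes formed by UV-ligand exchange, cleaving a UV-sensitive peptide so the test peptide can bind. Exchange yield measured by ELISA: complexes captured on streptavidin-coated wells, diluted 100-fold, detected with HRP anti-β2m (1 h, 37 °C) and TMB at 450 nm, against refolded HLA-A*02:01/MLA-001 standards (15-500 ng/ml).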

CD8+ T cells = test: In vitro immunogenicity: T-cell priming with aAPCs loaded with peptide/MHC and anti-CD28, pMHC multimer readout; assay type: cell-based, human; conditions: CD8+ T cells of healthy donors, three stimulation cycles; for Wells positive [%]: HLA-A*02 restricted peptides; for wells (in vitro immunogenicity, positive wells): HLA class I peptides
Protocol: In an aspect, the peptides are pre-screened for immunogenicity before being included in the warehouse. By way of example, and not limitation, the immunogenicity of the peptides included in the warehouse is determined by a method comprising in vitro T-cell priming through repeated stimulations of CD8+ T cells from healthy donors with artificial antigen presenting cells loaded with peptide/MHC complexes and anti-CD28 antibody.
CD8+ T cells were primed using artificial APCs coated with anti-CD28 mAb and HLA-A*02 in complex with SeqID No 1 peptide (FIG. 3C, left panel), SeqID No 5 peptide (FIG. 3D left panel), SeqID No 32 peptide (FIG. 3E, left panel) and SeqID No 220 peptide (FIG. 3F, left panel), respectively. After three cycles of stimulation, the detection of peptide-reactive cells was performed by 2D multimer staining with A*02/SeqID No 1 (FIG. 3C), A*02/SeqID No 5 (FIG. 3D), A*02/SeqID No 32 (FIG. 3E) or A*02/SeqID No 220 (FIG. 3F). Right panels (FIGS. 3C, 3D, 3E and 3F) show control staining of cells stimulated with irrelevant A*02/peptide complexes. Viable singlet cells were gated for CD8+ lymphocytes. Boolean gates helped excluding false-positive events detected with multimers specific for different peptides.
In order to obtain information regarding the immunogenicity of the TUMAPs of the present invention, the inventors performed investigations using an in vitro T-cell priming assay based on repeated stimulations of CD8+ T cells with artificial antigen presenting cells (aAPCs) loaded with peptide/MHC complexes and anti-CD28 antibody.
In order to perform in vitro stimulations by artificial antigen presenting cells loaded with peptide-MHC complex (pMHC) and anti-CD28 antibody, the inventors first isolated CD8+ T cells from fresh HLA-A*02 leukapheresis products via positive selection using CD8 microbeads (Miltenyi Biotec, Bergisch-Gladbach, Germany) of healthy donors obtained from the University clinics Mannheim, Germany, after informed consent.
PBMCs and isolated CD8+ lymphocytes were incubated in T-cell medium (TCM) until use consisting of RPMI-Glutamax (Invitrogen, Karlsruhe, Germany) supplemented with 10% heat inactivated human AB serum (PAN-Biotech, Aidenbach, Germany), 100 U/ml Penicillin/100 μg/ml Streptomycin (Cambrex, Cologne, Germany), 1 mM sodium pyruvate (CC Pro, Oberdorla, Germany), 20 μg/ml Gentamycin (Cambrex). 2.5 ng/ml IL-7 (PromoCell, Heidelberg, Germany) and 10 U/ml IL-2 (Novartis Pharma, Nirnberg, Germany) were also added to the TCM at this step.
Generation of pMHC/anti-CD28 coated beads, T-cell stimulations and readout was performed in a highly defined in vitro system using four different pMHC molecules per stimulation condition and 8 different pMHC molecules per readout condition.
The purified co-stimulatory mouse IgG2a anti human CD28 Ab 9.3 (Jung et al., 1987) was chemically biotinylated using Sulfo-N-hydroxysuccinimidobiotin as recommended by the manufacturer (Perbio, Bonn, Germany). Beads used were 5.6 μm diameter streptavidin coated polystyrene particles (Bangs Laboratories, Illinois, USA).
800.000 beads/200 μl were coated in 96-well plates in the presence of 4×12.5 ng different biotin-pMHC, washed and 600 ng biotin anti-CD28 were added subsequently in a volume of 200 μl. Stimulations were initiated in 96-well plates by co-incubating 1×10^6 CD8+ T cells with 2×10^5 washed coated beads in 200 μl TCM supplemented with 5 ng/ml IL-12 (PromoCell) for 3 days at 37° C. Half of the medium was then exchanged by fresh TCM supplemented with 80 U/ml IL-2 and incubating was continued for 4 days at 37° C. This stimulation cycle was performed for a total of three times. For the pMHC multimer readout using 8 different pMHC molecules per condition, a two-dimensional combinatorial coding approach was used as previously described (Andersen et al., 2012) with minor modifications encompassing coupling to 5 different fluorochromes.

Substance	Peptide Exchange (HLA-A*02:01)	Wells positive [%] (CD8+ T cells)	wells (in vitro immunogenicity, positive wells) (CD8+ T cells)
26 (AVLLVLPLV; listed as Homo sapiens) [compound 26]	″+++″ (≥50 = +++)	″+″ (<20% = +)	
201 (YQLELHGIEL; listed as Homo sapiens) [compound 201]	″++++″ (≥75% = ++++)	″+″ (<20% = +)	
332 (VMIQHVENL; listed as Homo sapiens) [compound 332]	″+++″ (≥50 = +++)	″+″ (<20% = +)	
114 (LIPEGPPQV; listed as Homo sapiens) [compound 114]	″+++″ (≥50 = +++)	″+″ (<20% = +)	
96 (ILIDKTSFV; listed as Homo sapiens) [compound 96]	″+++″ (≥50 = +++)	″+″ (<20% = +)	
49 (FLTDLFAQL; listed as Homo sapiens) [compound 49]	″++++″ (≥75% = ++++)	″++″ (20%-49% = ++)	
1 (AIPPSFASIFL; listed as Homo sapiens) [compound 1]	″+++″ (≥50 = +++)	″+++″ (50%-69% = +++)	
427 (LLYDAVHIV; listed as Homo sapiens) [compound 427]			++ (20%-49% = ++)
57 (GLSEISLRL; listed as Homo sapiens) [compound 57]	″++++″ (≥75% = ++++)	″+″ (<20% = +)	
101 (ILVVIEPLL; listed as Homo sapiens) [compound 101]	″++++″ (≥75% = ++++)	″+″ (<20% = +)	
112 (KTLDVDATYEI; listed as Homo sapiens) [compound 112]	″+++″ (≥50 = +++)	″+″ (<20% = +)	
521 (YLYGQTTTYL; listed as Homo sapiens) [compound 521]			++ (20%-49% = ++)
323 (SLDLFNCEV; listed as Homo sapiens) [compound 323]	″++++″ (≥75% = ++++)	″+″ (<20% = +)	
100 (ILNNEVFAI; listed as Homo sapiens) [compound 100]	″+++″ (≥50 = +++)	″++″ (20%-49% = ++)	
197 (YLQEVPILTL; listed as Homo sapiens) [compound 197]	″++++″ (≥75% = ++++)	″+″ (<20% = +)	
329 (VLMDGSVKL; listed as Homo sapiens) [compound 329]	″++++″ (≥75% = ++++)	″+++″ (50%-69% = +++)	

Second part, led by results:

Peptide Exchange (HLA-A*02:01)	Substance	Wells positive [%] (CD8+ T cells)	wells (in vitro immunogenicity, positive wells) (CD8+ T cells)
″+++″ (≥50 = +++)	17 (ALTKTNLQL; listed as Homo sapiens) [compound 17]	″+″ (<20% = +)	
″+++″ (≥50 = +++)	220 (ALPEILFAKV; listed as Homo sapiens) [compound 220]	″++″ (20%-49% = ++)	
″+++″ (≥50 = +++)	86 (HLYPGAVTI; listed as Homo sapiens) [compound 86]	″+″ (<20% = +)	
″+++″ (≥50 = +++)	307 (LLLTKPTEA; listed as Homo sapiens) [compound 307]	″+″ (<20% = +)	
″++++″ (≥75% = ++++)	32 (FIDKFTPPV; listed as Homo sapiens) [compound 32]	″++++″ (> = 70% = ++++)	
″+++″ (≥50 = +++)	282 (LLRDGIELV; listed as Homo sapiens) [compound 282]	″++″ (20%-49% = ++)	
″+++″ (≥50 = +++)	2 (ALHRPDVYL; listed as Homo sapiens) [compound 2]	″+″ (<20% = +)	
″+++″ (≥50 = +++)	192 (YIQEYLTLL; listed as Homo sapiens) [compound 192]	″+″ (<20% = +)	
″++++″ (≥75% = ++++)	200 (YMFEEVPIVI; listed as Homo sapiens) [compound 200]	″+″ (<20% = +)	
″++++″ (≥75% = ++++)	154 (SLLAELHVLTV; listed as Homo sapiens) [compound 154]	″+″ (<20% = +)	
″++++″ (≥75% = ++++)	202 (YVDDVFLRV; listed as Homo sapiens) [compound 202]	″++″ (20%-49% = ++)	
″+++″ (≥50 = +++)	281 (NLLDDRGMTAL; listed as Homo sapiens) [compound 281]	″+″ (<20% = +)	
″++++″ (≥75% = ++++)	320 (TIAPVTVAV; listed as Homo sapiens) [compound 320]	″+″ (<20% = +)	
″+++″ (≥50 = +++)	5 (ALIFKIASA; listed as Homo sapiens) [compound 5]	″+++″ (50%-69% = +++)	
″+++″ (≥50 = +++)	240 (ILARDILEI; listed as Homo sapiens) [compound 240]	″+″ (<20% = +)	
″+++″ (≥50 = +++)	54 (FLYPFPLALF; listed as Homo sapiens) [compound 54]	″+″ (<20% = +)	
″++″ (≥20% = ++)	102 (IQDRAVPSL; listed as Homo sapiens) [compound 102]	″+″ (<20% = +)	
″+++″ (≥50 = +++)	81 (WLVGQEFEL; listed as Homo sapiens) [compound 81]	″+″ (<20% = +)	
″+++″ (≥50 = +++)	69 (GLHQREIFL; listed as Homo sapiens) [compound 69]	″+″ (<20% = +)	
″+++″ (≥50 = +++)	380 (YLDRKLLTL; listed as Homo sapiens) [compound 380]	″++++″ (> = 70% = ++++)	
″+++″ (≥50 = +++)	56 (FVFEAPYTL; listed as Homo sapiens) [compound 56]	″++″ (20%-49% = ++)	
″+++″ (≥50 = +++)	322 (SLASIHVPL; listed as Homo sapiens) [compound 322]	″+″ (<20% = +)	
